The record followed here is patent US8575340B2, “Purine derivatives and their pharmaceutical uses” (GlaxoSmithKline LLC, priority 2010, dated 2013).

Each structure is given as a SMILES string. A value given as a limit tells only on which side of the number the result lay.

Assay type in all cases: cell-based
Test [1] deals with Interferon-α. The experiment in a line: Induction of Interferon-α using cryopreserved human PBMCs. The settings on record: PBMC, 24 hours incubation, normalised to 1 μM resiquimod and DMSO, read-out: mean pEC50 for induction of Interferon-α (converted). The protocol:
Assay for the Induction of Interferon-α using Cryopreserved Human Peripheral Blood Mononuclear Cells (PBMCs)
Compounds were dissolved in DMSO. Serial 2-fold dilutions with DMSO were prepared and 0.25 μL dispensed into 384-well clear Greiner polypropylene plates.
Blood samples of up to 200 mL were obtained from healthy human donors. Whole blood in 25 mL volumes was overlaid onto 15 mL Ficoll gradients in Leucosep tubes, and centrifuged at 1000 g for 20 minutes. Cells in the band at the plasma/histopaque interface were carefully removed and washed twice with PBS (centrifuged at 400 g for 5 min to harvest). The final pellet was resuspended in freezing medium (90% Heat-inactivated serum, 10% DMSO) to a cell concentration of 4×10^7 cells/mL. The resuspended cells were then cryopreserved (frozen) using a rate controlled freezer, and stored at −140° C. for up to 4 months.
Incubation and Assay for Interferon-α
Immediately prior to assay, vials of cryopreserved (frozen) PBMCs were thawed rapidly in a water bath at 37° C. A 1:10 dilution of the cells in trypan blue was prepared and counted. The PBMCs were then diluted in growth media [RPMI 1640 containing 10% fetal calf serum (invitrogen), Penicillin+[…] (Gibco cat. #25030-024, 1:50), L-Glutamine 2 mM, and 1000 units/mL recombinant human IFN-gamma (Preprotech catalogue #300-02)] to a density of 1×10^6 cells/mL, and 50 uL/well dispensed to 384-well clear Greiner polypropylene plates containing 0.25 μL DMSO or test compound in 0.25 μL DMSO. […] Plates were incubated for 24 hours at 37° C. in 5% CO2.
A multi-isoform immunoassay was used to quantify IFN-α in PBMC supernatants. Rabbit polyclonal antibody against human IFN-α (catalogue number 31101, Stratech Scientific) was diluted 1:10000 in assay buffer (RPMI 1640 containing 10% fetal calf serum, Invitrogen) and 20 μL was added to each well of an MSD (Meso-Scale Discovery) single small-spot 384-well GAR (goat anti-rabbit antibody coated) plate. The plate was incubated for 1 hour at room temperature with vigorous shaking. Following three washes with PBS, 20 μL of cell supernatant were added to each well of the plate. The plate was then incubated for 1 hour at room temperature with vigorous shaking. A pair of monoclonal antibodies to IFN-α (catalogue numbers 21100 and 21112, Stratech Scientific) were labelled with sulfo-TAG (MSD), diluted 1:1000 in assay buffer and 20 μL added to each well of the plate. The plate was further incubated for 1 hour at room temperature with vigorous shaking. Following three washes with PBS, 30 μL of ×2 T buffer (MSD) was added to each well and the plate was read on an MSD Sector 6000 plate reader.
Data were normalised to internal plate controls of 1 μM resiquimod (n=16) and DMSO (n=16). pEC50 values were derived by 4-parameter curve fit with IRLS in ActivityBase, from 11-point, two-fold serial dilution of test compounds.

Test [2] concerns IFN-α. The experiment in a line: Induction of Interferon-α using fresh human PBMCs. The settings on record: PBMC, two donors, 24 hours incubation, percentage of 2 μM resiquimod control, read-out: pEC50 for induction of IFN-α (converted). The protocol:
(§1) Assay for the Induction of Interferon-α and TNF-α using Fresh Human Peripheral Blood Mononuclear Cells (PBMCs)
(§2) Compounds were dissolved and serially diluted in DMSO to give 100× the required concentration range using a Biomek 2000. 1 μL of test compound was transferred into 96-well tissue culture plates using a Biomek FX. Each compound was assayed in duplicate for each donor. Each plate contained a dilution series of the TLR7/8 agonist resiquimod as standard and Column 11 contained 1 μL of 200 μM resiquimod (giving a 2 μM final concentration, used to define the approximate maximal response to resiquimod).
(§3) Blood samples from two human donors were collected into sodium heparin (10 U/mL). 25 mL volumes of whole blood were overlaid onto 15 mL Histopaque in Leucosep tubes which were centrifuged at 800 g for 20 min and the band at the plasma/histopaque interface carefully removed. The collected cells were centrifuged at 2500 rpm for 10 min and the pellet resuspended in 10 mL of media (RPMI 1640 (Low endotoxin) supplemented with 10% v/v foetal calf serum (FCS, low endotoxin) 100 U/mL penicillin G, 100 μg/mL streptomycin, 10 mM L-glutamine and 1× non-essential amino acids). A 1:20 dilution of the cells was prepared using trypan blue and the cells counted using a haemocytometer. The PBMCs were diluted to give a final concentration of 2×10^6/mL and 100 μL of this cells suspension was added to wells containing 1 μL of diluted test compound.
(§4) Incubation and Assays for Interferon-α and TNF-α
(§5) The cell preparations were incubated for 24 hours (37° C., 95% air, 5% CO2) after which a sample of the supernatant was removed using the Biomek FX and assayed for both IFN-α and TNF-α using the MSD (Mesoscale Discovery) electrochemiluminescence assay platform. The IFN-α assay was carried out similarly to that described above. […]
(§6) Cytokine released was expressed as a percentage of the 2 μM resiquimod control (column 11). This percentage was plotted against compound concentration and the pEC50 for the response determined by non-linear least squares curve fitting. […]

The test system of test [3] is TNF-α. The experiment in a line: Induction of TNF-α using fresh human PBMCs. As to conditions: PBMC, two donors, 24 hours incubation, percentage of 2 μM resiquimod control, read-out: pEC50 for induction of TNF-α (converted). The protocol: as §1, §2, §3, §4, §5, §6

Take `CCCCOc1nc(N)c2[nH]c(=O)n(CCCC3CCCCN3CCO)c2n1` (centres unmarked) [Example 1, 6-Amino-2-(butyloxy)-9-[3-[1-(2-hydroxyethyl)-2-piperidinyl]propyl]-7,9-dihydro-8H-purin-8-one]: in test [1], the EC50 is less than 1580 nM.

With `CCCCOc1nc(N)c2[nH]c(=O)n(CC3CCCN(CCO)C3)c2n1` (centres unmarked) [Example 2, 6-Amino-2-(butyloxy)-9-{[1-(2-hydroxyethyl)-3-piperidinyl]methyl}-7,9-dihydro-8H-purin-8-one], the EC50 in test [2] was 63.1 nM; in test [1], less than 1580 nM; in test [3] it was 15800 nM.

Regarding `CCCCOc1nc(N)c2[nH]c(=O)n(CCC3CCCN(CCO)C3)c2n1` (centres unmarked) [Example 3, 6-Amino-2-(butyloxy)-9-{2-[1-(2-hydroxyethyl)-3-piperidinyl]ethyl}-7,9-dihydro-8H-purin-8-one], in test [1], the EC50 was less than 1580 nM.

Take `CCCCOc1nc(N)c2[nH]c(=O)n(CCCC3CCCN(CCO)C3)c2n1` (centres unmarked) [Example 4, 6-Amino-2-(butyloxy)-9-{3-[1-(2-hydroxyethyl)-3-piperidinyl]propyl}-7,9-dihydro-8H-purin-8-one]: in test [1], the EC50 is less than 1580 nM.

Regarding `CCCCOc1nc(N)c2[nH]c(=O)n(CCCCC3CCCN(CCO)C3)c2n1` (centres unmarked) [Example 5, 6-Amino-2-(butyloxy)-9-{4-[1-(2-hydroxyethyl)-3-piperidinyl]butyl}-7,9-dihydro-8H-purin-8-one], in test [1], the EC50 is less than 1580 nM.

For the compound `CCCCOc1nc(N)c2[nH]c(=O)n(CC3CCN(CCO)CC3)c2n1` [Example 6, 6-Amino-2-(butyloxy)-9-{[1-(2-hydroxyethyl)-4-piperidinyl]methyl}-7,9-dihydro-8H-purin-8-one], the EC50 in test [1] is less than 1580 nM.

For `CCCCOc1nc(N)c2[nH]c(=O)n(CCC3CCN(CCO)CC3)c2n1` [Example 7, 6-Amino-2-(butyloxy)-9-{2-[1-(2-hydroxyethyl)-4-piperidinyl]ethyl}-7,9-dihydro-8H-purin-8-one], the EC50 in test [1] was less than 1580 nM.

`CCCCOc1nc(N)c2[nH]c(=O)n(CCCC3CCN(CCO)CC3)c2n1` [Example 8, 6-Amino-2-(butyloxy)-9-{3-[1-(2-hydroxyethyl)-4-piperidinyl]propyl}-7,9-dihydro-8H-purin-8-one]: the EC50 in test [1] is less than 1580 nM.

For `CCCCOc1nc(N)c2[nH]c(=O)n(CCCCC3CCN(CCO)CC3)c2n1` [Example 9, 6-Amino-2-(butyloxy)-9-{4-[1-(2-hydroxyethyl)-4-piperidinyl]butyl}-7,9-dihydro-8H-purin-8-one], in test [1], the EC50 was less than 1580 nM.

As for `CCCCOc1nc(N)c2[nH]c(=O)n(CCCCCC3CCN(CCO)CC3)c2n1` [Example 10, 6-Amino-2-(butyloxy)-9-{5-[1-(2-hydroxyethyl)-4-piperidinyl]pentyl}-7,9-dihydro-8H-purin-8-one], the EC50 in test [2] was 0.501 nM; in test [1], less than 1580 nM; in test [3], 3160 nM.

For `CCCCOc1nc(N)c2[nH]c(=O)n(CCCN3CCN(CCO)CC3)c2n1` [Example 11, 6-Amino-2-(butyloxy)-9-{3-[4-(2-hydroxyethyl)-1-piperazinyl]propyl}-7,9-dihydro-8H-purin-8-one], the EC50 in test [1] was less than 1580 nM.

As for `CCCCNc1nc(N)c2[nH]c(=O)n(CCCN3CCN(CCO)CC3)c2n1` [Example 12, 6-Amino-2-(butylamino)-9-[3-[4-(2-hydroxyethyl)-1-piperazinyl]propyl]-7,9-dihydro-8H-purin-8-one], in test [1], the EC50 is less than 1580 nM.

Consider `CCCCOc1nc(N)c2[nH]c(=O)n(CCCCN3CCN(CCO)CC3)c2n1` [Example 13, 6-Amino-2-(butyloxy)-9-{4-[4-(2-hydroxyethyl)-1-piperazinyl]butyl}-7,9-dihydro-8H-purin-8-one], for which the EC50 in test [1] was less than 1580 nM.

`CCCCNc1nc(N)c2[nH]c(=O)n(CCCCN3CCN(CCO)CC3)c2n1` [Example 14, 6-Amino-2-(butylamino)-9-{4-[4-(2-hydroxyethyl)-1-piperazinyl]butyl}-7,9-dihydro-8H-purin-8-one]: in test [1], the EC50 is less than 1580 nM.

`CCCCOc1nc(N)c2[nH]c(=O)n(CCCCCN3CCN(CCO)CC3)c2n1` [Example 15, 6-Amino-2-(butyloxy)-9-{5-[4-(2-hydroxyethyl)-1-piperazinyl]pentyl}-7,9-dihydro-8H-purin-8-one]: the EC50 in test [1] was less than 1580 nM.

On to `CCCCOc1nc(N)c2[nH]c(=O)n(CCCCCN3CCN(CCOC)CC3)c2n1` [Example 16, 6-Amino-2-(butyloxy)-9-(5-{4-[2-(methyloxy)ethyl]-1-piperazinyl}pentyl)-7,9-dihydro-8H-purin-8-one], for which the EC50 in test [1] was less than 1580 nM.

In the case of `CCCCOc1nc(N)c2[nH]c(=O)n(CCCCCN3CCN(CCOCC)CC3)c2n1` [Example 17, 6-Amino-2-(butyloxy)-9-(5-{4-[2-(ethyloxy)ethyl]-1-piperazinyl}pentyl)-7,9-dihydro-8H-purin-8-one], the EC50 is 15.8 nM in test [2], less than 1580 nM in test [1] and 5010 nM in test [3].
